Data: patent US8022091B2, “Triazole derivative” (Taisho Pharmaceutical Co., Ltd., priority 2006, dated 2011)

What was measured:
human Edg-1 (S1P1) = target: T1, human Edg-1 (S1P1) (Homo sapiens, UniProt P21453); test: S1P1 binding assay: inhibition of [33P]-S1P binding to membrane fraction of HEK-293 cells transferred with the human Edg-1 (S1P1) gene; details: for IC50: [33P]-S1P 0.1 nM, human Edg-1 (S1P1) HEK-293 membrane fraction, 1 h at 30° C., read-out: IC50 (concentration at which binding in the absence of the test compound was inhibited by 50%)
T1 construct: expressed in transfected cells; host or cells: HEK-293
T1 sequence (P21453 whole entry): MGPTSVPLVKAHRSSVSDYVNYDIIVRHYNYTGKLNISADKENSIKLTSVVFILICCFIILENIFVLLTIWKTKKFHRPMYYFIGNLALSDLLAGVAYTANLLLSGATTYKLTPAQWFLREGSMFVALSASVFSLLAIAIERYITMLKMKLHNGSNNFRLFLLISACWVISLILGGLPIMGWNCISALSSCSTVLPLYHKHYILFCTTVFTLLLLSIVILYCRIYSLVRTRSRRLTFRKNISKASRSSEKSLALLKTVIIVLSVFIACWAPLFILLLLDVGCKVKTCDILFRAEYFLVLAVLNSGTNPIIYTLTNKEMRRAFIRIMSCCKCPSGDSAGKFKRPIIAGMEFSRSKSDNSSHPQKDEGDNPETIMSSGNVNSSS
Procedure, shortened: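 With 0.1 nM [33P]-S1P and compound (10^−5M single point, or a concentration range for IC50) in 0.1% DMSO, membrane fractions from human Edg-1-expressing HEK-293 cells were treated for one hour at 30° C in 20 mM Tris-HCl pH 7.4 with NaF, deoxypyridoxine and BSA. Bound label was measured after filtration, with untransfected-cell background subtracted.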

[1] = test compound at 10 μM, inhibition of [33P]-S1P binding to the membrane fraction of HEK-293 cells expressing human Edg-1 (S1P1)
[2] = test compound 10 μM, inhibition of [33P]-S1P binding, membrane fraction

SMILES | melting point [°C] | IC50 (human Edg-1 (S1P1)) [nM] | inhibition at 10 µM (human Edg-1 (S1P1); [1]) [%] | inhibition at 10 µM (human Edg-1 (S1P1); [2]) [%]
CCn1c(Oc2ccc(F)cc2)nnc1[C@@H](C)NS(=O)(=O)c1ccc(Br)c(C)c1 [Compound 110] | 187.5 to 188.5 |  | 104 | 
CCn1c(Nc2ccc(F)cc2)nnc1[C@@H](C)NS(=O)(=O)c1ccc(Cl)c(Cl)c1 [Compound 116] | 192 to 195 |  | 83.1 | 
CCOc1ccc2c(Oc3nnc([C@@H](C)NS(=O)(=O)c4ccc(Cl)c(Cl)c4)n3CC)csc2c1 [Compound 117] | 153.5 to 155.5 |  | 87.1 | 
CCn1c(Oc2ccc(F)cc2)nnc1[C@@H](C)NS(=O)(=O)c1ccc2ccccc2c1 [Compound 122] | 167 to 170 | ≤ 35 | 81.9 | 
CCn1c(Oc2ccc(F)cc2)nnc1[C@@H](C)NS(=O)(=O)c1ccc(C)c(C)c1 [Compound 126] | 176.5 to 178 |  | 91.8 | 
CCn1c(Oc2ccc(F)cc2)nnc1[C@@H](C)NS(=O)(=O)c1ccc(C(F)(F)F)cc1 [Compound 128] | 182.5 to 183.5 |  | 90.7 | 
CCn1c(Oc2ccc3cc[nH]c3c2)nnc1[C@@H](C)NS(=O)(=O)c1ccc(C)c(C)c1 [Compound 129] | 96 to 104 | 20 | 96.8 | 
CCn1c(Oc2ccc3cc[nH]c3c2)nnc1[C@@H](C)NS(=O)(=O)c1ccc2ccccc2c1 [Compound 130] | 107 to 114 | 2.9 | 98.9 | 
CCn1c(Oc2ccc3cc[nH]c3c2)nnc1[C@@H](C)NS(=O)(=O)c1cc(C)c(Cl)cc1Cl [Compound 131] | 102 to 110.5 | ≤ 35 | 97.3 | 
CCn1c(Oc2ccc3cc[nH]c3c2)nnc1[C@@H](C)NS(=O)(=O)c1ccc(Cl)c(Cl)c1Cl [Compound 134] | 108.5 to 114.5 | ≤ 35 | 101 | 
CCn1c(Oc2ccc3cc[nH]c3c2)nnc1[C@@H](C)NS(=O)(=O)c1cccc(C(F)(F)F)c1 [Compound 135] | 188.5 to 192 |  | 101 | 
CCn1c(Oc2ccc3cc[nH]c3c2)nnc1[C@@H](C)NS(=O)(=O)c1ccc(C(F)(F)F)cc1 [Compound 136] | 100 to 106 | 8.1 | 96.5 | 
CCn1c(Oc2ccc(F)cc2)nnc1[C@@H](C)NS(=O)(=O)c1ccc2c(Cl)cccc2c1 [Compound 137] | 173.5 to 177 | ≤ 10 | 102 | 
CCn1c(Oc2ccc(OC)cc2)nnc1[C@@H](C)NS(=O)(=O)c1ccc2c(Cl)cccc2c1 [Compound 138] | 167.5 to 169 | ≤ 10 | 99.6 | 
CCn1c(Oc2ccc(Cl)cc2)nnc1[C@@H](C)NS(=O)(=O)c1ccc2c(Cl)cccc2c1 [Compound 139] | 174 to 177 | ≤ 10 | 101 | 
CCn1c(Oc2ccc(OC)cc2)nnc1[C@@H](C)NS(=O)(=O)c1ccc2ccccc2c1 [Compound 140] | 110 to 119 | ≤ 10 | 102 | 
CCn1c(Oc2ccc(Cl)cc2)nnc1[C@@H](C)NS(=O)(=O)c1ccc2ccccc2c1 [Compound 141] | 169 to 173 | ≤ 35 | 105 | 
CCn1c(Oc2cccc(NS(C)(=O)=O)c2)nnc1[C@@H](C)NS(=O)(=O)c1ccc2ccccc2c1 [Compound 147] | 141 to 143 | ≤ 10 | 103 | 
CCn1c(Oc2cccc(NS(C)(=O)=O)c2)nnc1[C@@H](C)NS(=O)(=O)c1ccc2c(Cl)cccc2c1 [Compound 148] | 154.5 to 155.5 | 1.9 | 102 | 

More lines, now with the values ahead:

melting point [°C] | IC50 (human Edg-1 (S1P1)) [nM] | inhibition at 10 µM (human Edg-1 (S1P1); [1]) [%] | inhibition at 10 µM (human Edg-1 (S1P1); [2]) [%] | SMILES
121 to 123 | 2.9 | 104 |  | CCn1c(Oc2cccc(N(C)CCN(C)C)c2)nnc1[C@@H](C)NS(=O)(=O)c1ccc(Cl)c(Cl)c1 [Compound 105]
132 to 134 |  | 110 |  | CCn1c(Oc2cccc(OCCN(C)C)c2)nnc1[C@@H](C)NS(=O)(=O)c1ccc(Cl)c(Cl)c1 [Compound 106]
159 to 162 | ≤ 10 | 104 |  | CCn1c(Oc2cccc(N(C(C)C)C(C)C)c2)nnc1[C@@H](C)NS(=O)(=O)c1ccc(Cl)c(Cl)c1 [Compound 107]
175 to 180 | 18 | 101 |  | CCn1c(Oc2cccc(C3CCN(C(C)C)CC3)c2)nnc1[C@@H](C)NS(=O)(=O)c1ccc(Cl)c(Cl)c1 [Compound 108]
152 to 153 | ≤ 35 | 104 |  | CCn1c(Oc2cccc(N3CCN(C)CC3)c2)nnc1[C@@H](C)NS(=O)(=O)c1ccc(F)c(Cl)c1 [Compound 109]
204 to 205 | ≤ 10 | 109 |  | CCn1c(Oc2cccc(N3CCN(C)CC3)c2)nnc1[C@@H](C)NS(=O)(=O)c1ccc(Br)c(C)c1 [Compound 111]
171 to 173 | ≤ 10 | 99.2 |  | CCn1c(Oc2cccc(N3CCN(C)CC3)c2)nnc1[C@@H](C)NS(=O)(=O)c1ccc(Br)c(Br)c1 [Compound 112]
183 to 185 |  | 74.2 |  | CCn1c(Oc2cccc(C(=O)O)c2)nnc1[C@@H](C)NS(=O)(=O)c1ccc(Cl)c(Cl)c1 [Compound 113, 3-[5-[(R)-1-(3,4-Dichlorobenzenesulfonylamino)-ethyl]-4-ethyl-4H-[1,2,4]triazol-3-yloxy]-benzoic acid]
185 to 186 |  | 94.5 |  | CCn1c(Oc2cccc(O)c2)nnc1[C@@H](C)NS(=O)(=O)c1ccc(Cl)c(Cl)c1 [Compound 114, 3,4-Dichloro-N-[(R)-1-[4-ethyl-5-(3-hydroxyphenoxy)-4H-[1,2,4]triazol-3-yl]-ethyl]-benzenesulfonamide]
211.5 to 216.5 | 1.7 | 93 |  | CCn1c(Oc2cccc(N3CCN(C)CC3)c2)nnc1[C@@H](C)NS(=O)(=O)c1ccc2c(Cl)cccc2c1 [Compound 120]
195.5 to 198.5 | ≤ 10 | 103 |  | CCn1c(Oc2cccc(N3CCN(C)CC3)c2)nnc1[C@@H](C)NS(=O)(=O)c1ccc2ccccc2c1 [Compound 121]
162 to 165 | ≤ 35 | 97.1 |  | C[C@@H](NS(=O)(=O)c1ccc(Cl)c(Cl)c1)c1nnc(Oc2cccc(N3CCN(C)CC3)c2)n1C1CC1 [Compound 123]
178.5 to 180 |  | 97.4 |  | C[C@@H](NS(=O)(=O)c1ccc(Cl)c(Cl)c1)c1nnc(Oc2ccc(F)cc2)n1C1CC1 [Compound 124]
253.5 to 254.5 | ≤ 35 | 94.3 |  | C[C@@H](NS(=O)(=O)c1ccc(Cl)c(Cl)c1)c1nnc(Oc2ccc3cc[nH]c3c2)n1C1CC1 [Compound 125]
95 to 104 | ≤ 10 | 99.5 |  | CCn1c(Oc2ccc3cc[nH]c3c2)nnc1[C@@H](C)NS(=O)(=O)c1ccc(C)c(Cl)c1 [Compound 132]
164 to 169.5 | ≤ 10 | 101 |  | CCn1c(Oc2cccc(N3CCN(C)CC3)c2)nnc1[C@@H](C)NS(=O)(=O)c1ccc(C)c(Cl)c1 [Compound 133]
183 to 184 | ≤ 35 | 98.1 |  | CCn1c(Oc2cccc(N3CCN(C)CC3)c2)nnc1[C@@H](C)NS(=O)(=O)c1ccc(C(F)(F)F)cc1 [Compound 142]
144 to 145 | 7.3 | 99.9 |  | CCn1c(Oc2cccc(N3CCN(C)CC3)c2)nnc1[C@@H](C)NS(=O)(=O)c1ccc(Cl)c(Cl)c1Cl [Compound 143]
187 to 188 | 7.9 | 99.4 |  | CCn1c(Oc2cccc(N3CCN(C)CC3)c2)nnc1[C@@H](C)NS(=O)(=O)c1cc2ccccc2s1 [Compound 144]
150 to 152 | ≤ 35 | 101 |  | CCn1c(Oc2cccc(N3CCN(C)CC3)c2)nnc1[C@@H](C)NS(=O)(=O)c1cc(F)cc(Cl)c1C [Compound 145]
121 to 122 | 12 | 102 |  | CCn1c(Oc2cccc(N3CCN(C)CC3)c2)nnc1[C@@H](C)NS(=O)(=O)/C=C/c1ccccc1 [Compound 146]
212 to 214.5 | 7.8 | 101 |  | CCC(NS(=O)(=O)c1ccc(Cl)c(Cl)c1)c1nnc(Oc2ccc(C)cc2)n1CC (stereo not shown) [Compound 149]
210 to 217 | ≤ 10 |  | 99.5 | CCn1c(Oc2cccc(N3CCN(C(C)C)CC3)c2)nnc1[C@@H](C)NS(=O)(=O)c1ccc2c(Cl)cccc2c1 [Compound 663]
218 to 221.5 |  |  | 85.4 | CCn1c(Oc2cccc(N3CCN(C)CC3)c2)nnc1[C@@H](C)NS(=O)(=O)c1ccc2cc(Cl)ccc2c1 [Compound 664]
197 to 201 | ≤ 35 |  | 100 | CCn1c(Oc2cccc(N3CCN(C)CC3)c2)nnc1[C@@H](C)NS(=O)(=O)c1ccc2ccc(Cl)cc2c1 [Compound 665]
